Results published in the OligoGym collection.
Values joined by “and” are separate entries in the source; they are usually repeats but may differ in a detail not shown here. Equal values may be shown once. After the bases stand the sugars from the 5' end (letter, count) and the backbone: PS all phosphorothioate, else s phosphorothioate and o phosphodiester by linkage. Methylation of C is not given here. e = 2'-O-(2-methoxyethyl) (MOE); k = constrained ethyl (cEt); d = 2'-deoxy (DNA)

Biological target: IRF4
Conditions: ASO

Sequence | target mRNA inhibition (SK-MEL-28, 4 µM) [%] | target mRNA inhibition (MM.1R, 1 µM) | other results
AACGAGTTGACACAGG (sugars k3 d10 k3, PS) | 55 |  | 
AACGGAAGTTTACACT (sugars k3 d10 k3, PS) | 59 |  | 
AACTAATGTCCCCAGG (sugars k3 d10 k3, PS) |  | -12% | 
AACTAGTCGACAGCTA (sugars k3 d10 k3, PS) |  | -7% | 
AACTGCAGCACCGTGG (sugars k3 d10 k3, PS) | 45 |  | 
AACTGGATTGATGTGA (sugars k3 d10 k3, PS) | 77 |  | 
AACTTATAGCACTCTC (sugars k3 d10 k3, PS) | 28 |  | 
AACTTTCACCTGTGGG (sugars k3 d10 k3, PS) | 50 |  | 
AACTTTTACCTGGTAT (sugars k3 d10 k3, PS) | 28 |  | 
AAGAAGCACTGGCATC (sugars k3 d10 k3, PS) | 23 |  | 
AAGAATGGCGCATAGG (sugars k3 d10 k3, PS) | 81 | 28% and 42% | target mRNA inhibition (MM.1R, 0.0625 µM): -1% and 19%; target mRNA inhibition (MM.1R, 0.25 µM): 12% and 27%; target mRNA inhibition (MM.1R, 4 µM): 55% and 66%
AAGACTATTAGATAAG (sugars k3 d10 k3, PS) | 22 |  | 
AAGATCTCCATGGTGC (sugars k3 d10 k3, PS) |  | 39% and 29% | target mRNA inhibition (MM.1R, 0.0625 µM): 4%; target mRNA inhibition (MM.1R, 0.25 µM): 10%; target mRNA inhibition (MM.1R, 4 µM): 56%
AAGCAAGTCGGTCCAC (sugars k3 d10 k3, PS) | 32 |  | 
AAGCACTGGCATCGAG (sugars k3 d10 k3, PS) | 27 |  | 
AAGCAGTGATGTCAGG (sugars k2 d9 e3 k2, PS) |  | 62% and 51% | 
AAGCAGTGATGTCAGG (sugars k3 d10 k3, PS) |  | 66% and 65% | target mRNA inhibition (MM.1R, 0.0625 µM): 8%; target mRNA inhibition (MM.1R, 0.25 µM): 25%; target mRNA inhibition (MM.1R, 4 µM): 75%
AAGCAGTGATGTCAGG (sugars kkdddddddddkdkdk, PS) |  | 60% and 61% | 
AAGCATAAAAGGTTCC (sugars k3 d10 k3, PS) | 28 |  | 
AAGCATAGAGTCACCT (sugars k3 d10 k3, PS) | 36 |  | 
AAGCATTTTATCATCC (sugars kddddddddddkekek, PS) |  | 14% | 
AAGCATTTTATCATCC (sugars kdddddddddkekeke, PS) |  | 6% | 
AAGCATTTTATCATCC (sugars kkkddddddddkekek, PS) |  | 10% | 
AAGCTTAGTTATCTGG (sugars k3 d10 k3, PS) |  | 35% and 13% | target mRNA inhibition (MM.1R, 0.0625 µM): -13%; target mRNA inhibition (MM.1R, 0.25 µM): -10%; target mRNA inhibition (MM.1R, 4 µM): 45%
AAGCTTGATAAAGGCT (sugars k2 d9 e3 k2, PS) |  | 53% | 

Sequence | target mRNA inhibition (SK-MEL-28, 4 µM) [%] | target mRNA inhibition (MM.1R, 1 µM) | other results
AAGCTTGATAAAGGCT (sugars kddddddddddkekek, PS) |  | 3% | 
AAGCTTGATAAAGGCT (sugars kdddddddddkekeke, PS) |  | 2% | 
AAGGAACAAGTGTATC (sugars k3 d10 k3, PS) |  | 13% | 
AAGGAGGTAGTGGCCC (sugars k3 d10 k3, PS) | 47 |  | 
AAGGGAACAGATAGTT (sugars k3 d10 k3, PS) | 20 |  | 
AAGTCATTGCTCTTGT (sugars k4 d8 k4, PS) | 28 |  | 
AAGTCTACAGCCCCAG (sugars k3 d10 k3, PS) |  | -5% | 
AAGTGGACCCCATTGC (sugars k3 d10 k3, PS) | 31 |  | 
AAGTGTCTAAAGTCCC (sugars kddddddddddkekek, PS) |  | -1% | 
AAGTGTCTAAAGTCCC (sugars kkdddddddddekeke, PS) |  | 13% and -1% | 
AAGTGTCTAAAGTCCC (sugars kkdddddddddkdkdk, PS) |  | 13% and 21% | 
AAGTGTCTTCCACAAG (sugars k3 d10 k3, PS) | 54 |  | 
AATAAGATCCCACGAA (sugars k3 d10 k3, PS) | 15 |  | 
AATACCTACCTGCCCT (sugars k3 d10 k3, PS) | 15 |  | 
AATACGACAACTTTCC (sugars k3 d10 k3, PS) | 50 |  | 
AATAGAGGAATGGCGG (sugars k3 d10 k3, PS) | 53 |  | 
AATCACCCTGGTCACC (sugars k3 d10 k3, PS) |  | 1% | 
AATCACTGGAGAGAAC (sugars k3 d10 k3, PS) | 29 |  | 
AATCATGATATTAGAG (sugars k3 d10 k3, PS) | 31 |  | 
AATGAACCCTAAGTTT (sugars k3 d10 k3, PS) | 3 |  | 
AATGACTTAGTCAGAA (sugars k3 d10 k3, PS) | 27 |  | 
AATGATGGCAGTCTAC (sugars k3 d10 k3, PS) | 33 |  | 
AATGCACCTGGGAGAC (sugars k3 d10 k3, PS) | 62 |  | 
AATGGAGCATCCGCTT (sugars k3 d10 k3, PS) | -7 |  | 
AATGTCACGCCCGCAA (sugars k3 d10 k3, PS) | 19 |  | 

Sequence | target mRNA inhibition (SK-MEL-28, 4 µM) [%] | target mRNA inhibition (MM.1R, 1 µM) | other results
AATGTGTATTACTCTT (sugars k3 d10 k3, PS) |  | 53% and 41% | 
AATGTGTATTACTCTT (sugars kkddddddddddkeke, PS) |  | 8% and 22% | 
AATTTTAAGGCCCTGT (sugars k3 d10 k3, PS) | 24 |  | 
ACAAAAACTTGGGTCA (sugars k3 d10 k3, PS) |  | -13% | 
ACAAAACGGACTGGAA (sugars k3 d10 k3, PS) | 14 |  | 
ACAAATTAAAGAGCGC (sugars k3 d10 k3, PS) | 64 |  | 
ACACAAGTCTTAGGTG (sugars k3 d10 k3, PS) |  | -153% | 
ACACAGGCTAATCAGA (sugars k3 d10 k3, PS) | 7 |  | 
ACACATTAAAGGGTAA (sugars k3 d10 k3, PS) | 11 |  | 
ACACATTTGAGAGCTA (sugars k3 d10 k3, PS) | 69 |  | 
ACACTTTTAGAGAGGA (sugars k2 d9 e3 k2, PS) |  | 21% | 
ACACTTTTAGAGAGGA (sugars kkdddddddddekeke, PS) |  | 41% | 
ACAGAAGGGCAACAGT (sugars k3 d10 k3, PS) | 43 |  | 
ACAGAGGTGGGAGTAC (sugars k3 d10 k3, PS) | -74 |  | 
ACAGGAGCCGCTACAG (sugars k3 d10 k3, PS) | 31 |  | 
ACAGGCGCGGACGCAC (sugars k3 d10 k3, PS) | 20 |  | 
ACAGTCCACTCCACCC (sugars k3 d10 k3, PS) |  | 14% | 
ACAGTGACTTGCATCC (sugars kkddddddddddkeke, PS) |  | 30% | 
ACAGTGACTTGCATCC (sugars kkdddddddddekeke, PS) |  | 9% | 
ACATATTCAATGCACC (sugars k3 d10 k3, PS) | 47 |  | 
ACATTAAAGGGTAAGC (sugars k3 d10 k3, PS) |  | -23% | 
ACATTACTAGATTGTA (sugars k3 d10 k3, PS) | 41 |  | 
ACATTGGTACGGGATT (sugars k3 d10 k3, PS) |  | 2% | 
ACCAAGAAATGCACCT (sugars k3 d10 k3, PS) | 57 |  | 
ACCAAGCTGGGTTTGC (sugars k3 d10 k3, PS) | 53 |  | 
